The test system of the assay is axillary malodour. In words: Deodorancy of pro-perfumes compared with their breakdown products. The settings on record: pro perfumes that undergo scission when exposed to UV light; no data given. In kind it is in vivo. From the text:
The effectiveness of compositions of the present invention comprising 2-Ethoxy-4-formylphenyl (E)-3-(2-hydroxyphenyl) acrylate and/or (E)-Dec-9-enyl 3-(2-hydroxyphenyl) acrylate, two group A materials, in axillary malodour counteracting deodorant is particularly surprising. These materials are pro perfumes that undergo scission into other compounds when exposed to UV light, this is disclosed in EP 936211. The use of materials that require light activation is counter-intuitive for application in underarm products such as deodorants and antiperspirants.

On to `C=CCCCCCCCCOC(=O)/C=C/c1ccccc1O` [(E)-Dec-9-enyl 3-(2-hydroxyphenyl)acrylate], for which the “deodorancy relative to breakdown products” value is “better deodorancy than their breakdown products”.

With `CCOc1cc(C=O)ccc1OC(=O)/C=C/c1ccccc1O` [2-Ethoxy-4-formylphenyl (E)-3-(2-hydroxyphenyl)acrylate], the “deodorancy relative to breakdown products” value is recorded as “better deodorancy than their breakdown products”.

These data come from US9125828B2, “MOC compositions” (Givaudan SA, priority 2010, dated 2015).
